We go through 1 compound from US7951538B2, “Method to determine the risk for side effects of an SSRI treatment in a person” (The Board of Trustees of the Leland Stanford Junior …, priority 2001, dated 2011).

In series [1] the test system is patients with major depression. The experiment in a line: Improvement in mood on the Hamilton Depression Rating Scale over the 8 week treatment period. The class given is in vivo, human. The settings on record: not affected by the 102 T/C polymorphism.
Procedure: (§1) All subjects were 65 years of age or older and had been free of 10 major medical problems for at least 3 months. […] Patients were excluded for clinically significant laboratory abnormalities, drug or alcohol abuse, psychosis, recent suicide attempt, and psychiatric conditions other than major depression, or treatment with antidepressant medications within 7 days of commencing the study.
On day 14, doses were increased to 30 mg once daily. […] All patients Were genotype for the 102 T/C polymorphism using the method described above.
In series [2] the test system is patients with major depression. The settings on record: human, in vivo.
Source text: as §1
Genomic DNA was extracted from EDTA-treated whole blood using the Puregene DNA extraction kit (Gentra Systems). Genotype for the 102 T/C DNA sequence polymorphism in the 5-HT2A receptor gene was determined using the method of Du et al. (Am J Med Genet. 2000 Feb. 7;96(1):56-60). […]
Discontinuations were classified as due to any event, and as due to an adverse event. […] Body weight was determined at baseline and at each subsequent visit. Actual medication taken Was determined by counting the number of tablets remaining at each clinic visit. Dosing compliance was determined by as total number of medication doses taken divided by total number of capsules given. […]

Consider `CN1CCN2c3ncccc3Cc3ccccc3C2C1` (stereo not drawn) [mirtazapine], for which the “improvement in mood (decreased depression), Hamilton Depression Rating Scale” value in series [1] is “statistically significant improvement”. In series [2], the “probability of discontinuing treatment due to side effects” value is on record as “no greater probability” and the “severity of side effects” value is listed as “no greater severity”.
